Assay results taken from PubChem BioAssay (NCI).
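Assay format: 96-well plates, 48-hour exposure. The concentration for 50% growth inhibition is given as GI50. TGI marks complete inhibition of growth.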

Assays:
Assay in all cases: inhibition of tumour cell growth, NCI panel, 48 h
NCI-H460 lung = test system: NCI-H460 lung
SNB-19 CNS = test system: SNB-19 CNS
SN12C renal = test system: SN12C renal
IGROV1 ovarian = test system: IGROV1 ovarian
HT29 colon = test system: HT29 colon
NCI-H226 lung = test system: NCI-H226 lung
SR leukemia = test system: SR leukemia
A549 NSCLC = test system: A549 NSCLC
UACC-62 melanoma = test system: UACC-62 melanoma
HOP-92 NSCLC = test system: HOP-92 NSCLC
MOLT-4 leukemia = test system: MOLT-4 leukemia
TK-10 renal = test system: TK-10 renal
UACC-257 melanoma = test system: UACC-257 melanoma
NCI/ADR-RES ovarian = test system: NCI/ADR-RES ovarian
HS 578T breast = test system: HS 578T breast
DU-145 prostate = test system: DU-145 prostate
PC-3 prostate = test system: PC-3 prostate
NCI-H522 lung = test system: NCI-H522 lung
MDA-MB-435 = test system: MDA-MB-435
K-562 leukemia = test system: K-562 leukemia
SK-MEL-28 melanoma = test system: SK-MEL-28 melanoma
HCT-116 colon = test system: HCT-116 colon
EKVX NSCLC = test system: EKVX NSCLC
M14 melanoma = test system: M14 melanoma
HCT-15 colon = test system: HCT-15 colon
RXF 393 renal = test system: RXF 393 renal
OVCAR-4 ovarian = test system: OVCAR-4 ovarian
SK-OV-3 ovarian = test system: SK-OV-3 ovarian
BT-549 breast = test system: BT-549 breast
CAKI-1 renal = test system: CAKI-1 renal
NCI-H23 lung = test system: NCI-H23 lung
SK-MEL-2 melanoma = test system: SK-MEL-2 melanoma
OVCAR-3 ovarian = test system: OVCAR-3 ovarian
LOX IMVI melanoma = test system: LOX IMVI melanoma
MCF7 breast = test system: MCF7 breast
SK-MEL-5 melanoma = test system: SK-MEL-5 melanoma
HOP-62 NSCLC = test system: HOP-62 NSCLC
OVCAR-8 ovarian = test system: OVCAR-8 ovarian
KM12 colon = test system: KM12 colon
SF-268 CNS = test system: SF-268 CNS
SW-620 colon = test system: SW-620 colon
COLO 205 colon = test system: COLO 205 colon
MALME-3M melanoma = test system: MALME-3M melanoma
UO-31 renal = test system: UO-31 renal
HL-60(TB) leukemia = test system: HL-60(TB) leukemia
HCC-2998 colon = test system: HCC-2998 colon
786-0 renal = test system: 786-0 renal
MDA-MB-231 breast = test system: MDA-MB-231 breast
U251 CNS = test system: U251 CNS
A498 renal = test system: A498 renal
SF-295 CNS = test system: SF-295 CNS
SNB-75 CNS = test system: SNB-75 CNS
T-47D breast = test system: T-47D breast
OVCAR-5 ovarian = test system: OVCAR-5 ovarian
RPMI-8226 leukemia = test system: RPMI-8226 leukemia
ACHN renal = test system: ACHN renal
SF-539 CNS = test system: SF-539 CNS
CCRF-CEM leukemia = test system: CCRF-CEM leukemia

In the case of `O=C1NC(=O)/C(=C/c2c(Cl)nc3sccn23)S1`, the GI50 (NCI-H460 lung) is reported as > 75.8 µM, the TGI (NCI-H460 lung) is reported as > 100 µM and the GI50 (SNB-19 CNS) is reported as > 79.1 µM. For the same compound, the TGI (SNB-19 CNS) was > 100 µM, the GI50 (SN12C renal) was > 51.5 µM and the TGI (SN12C renal) was > 100 µM. For the same compound, the GI50 (IGROV1 ovarian) was > 100 µM, the TGI (IGROV1 ovarian) was > 100 µM and the GI50 (HT29 colon) was > 100 µM. For the same compound, the TGI (HT29 colon) was > 100 µM, the GI50 (NCI-H226 lung) was 14.2 µM and the TGI (NCI-H226 lung) was > 100 µM. The GI50 (SR leukemia) was 37.6 µM, the TGI (SR leukemia) was > 100 µM and the GI50 (A549 NSCLC) was > 100 µM. The TGI (A549 NSCLC) was > 100 µM, the GI50 (UACC-62 melanoma) was 42.3 µM and the TGI (UACC-62 melanoma) was > 100 µM. For the same compound, the GI50 (HOP-92 NSCLC) was 20.9 µM, the TGI (HOP-92 NSCLC) was > 100 µM and the GI50 (MOLT-4 leukemia) was > 100 µM. For the same compound, the TGI (MOLT-4 leukemia) was > 100 µM, the GI50 (TK-10 renal) was > 57.6 µM and the TGI (TK-10 renal) was > 100 µM. For the same compound, the GI50 (UACC-257 melanoma) was > 91.9 µM, the TGI (UACC-257 melanoma) was > 100 µM and the GI50 (NCI/ADR-RES ovarian) was > 100 µM. For the same compound, the TGI (NCI/ADR-RES ovarian) was > 100 µM, the GI50 (HS 578T breast) was 30.9 µM and the TGI (HS 578T breast) was > 100 µM. For the same compound, the GI50 (DU-145 prostate) was > 100 µM, the TGI (DU-145 prostate) was > 100 µM and the GI50 (PC-3 prostate) was > 87.7 µM. For the same compound, the TGI (PC-3 prostate) was > 100 µM, the GI50 (NCI-H522 lung) was > 100 µM and the TGI (NCI-H522 lung) was > 100 µM. For the same compound, the GI50 (MDA-MB-435) was 97.3 µM, the TGI (MDA-MB-435) was > 100 µM and the GI50 (K-562 leukemia) was 68.9 µM. The TGI (K-562 leukemia) was > 100 µM, the GI50 (SK-MEL-28 melanoma) was > 82.4 µM and the TGI (SK-MEL-28 melanoma) was > 100 µM. The GI50 (HCT-116 colon) was 80.4 µM, the TGI (HCT-116 colon) was > 100 µM and the GI50 (EKVX NSCLC) was > 66.1 µM. The TGI (EKVX NSCLC) was > 100 µM, the GI50 (M14 melanoma) was 66.4 µM and the TGI (M14 melanoma) was > 100 µM. For the same compound, the GI50 (HCT-15 colon) was > 74.9 µM, the TGI (HCT-15 colon) was > 100 µM and the GI50 (RXF 393 renal) was > 65.7 µM. For the same compound, the TGI (RXF 393 renal) was > 100 µM, the GI50 (OVCAR-4 ovarian) was > 100 µM and the TGI (OVCAR-4 ovarian) was > 100 µM. The GI50 (SK-OV-3 ovarian) was > 70.1 µM, the TGI (SK-OV-3 ovarian) was > 100 µM and the GI50 (BT-549 breast) was > 84.5 µM. For the same compound, the TGI (BT-549 breast) was > 100 µM, the GI50 (CAKI-1 renal) was > 100 µM and the TGI (CAKI-1 renal) was > 100 µM. For the same compound, the GI50 (NCI-H23 lung) was > 56.4 µM, the TGI (NCI-H23 lung) was > 100 µM and the GI50 (SK-MEL-2 melanoma) was > 100 µM. For the same compound, the TGI (SK-MEL-2 melanoma) was > 100 µM, the GI50 (OVCAR-3 ovarian) was > 70.9 µM and the TGI (OVCAR-3 ovarian) was > 100 µM. For the same compound, the GI50 (LOX IMVI melanoma) was 57 µM, the TGI (LOX IMVI melanoma) was > 100 µM and the GI50 (MCF7 breast) was > 65.4 µM. For the same compound, the TGI (MCF7 breast) was > 100 µM, the GI50 (SK-MEL-5 melanoma) was 35.5 µM and the TGI (SK-MEL-5 melanoma) was > 100 µM. The GI50 (HOP-62 NSCLC) was > 100 µM, the TGI (HOP-62 NSCLC) was > 100 µM and the GI50 (OVCAR-8 ovarian) was > 100 µM. For the same compound, the TGI (OVCAR-8 ovarian) was > 100 µM, the GI50 (KM12 colon) was > 100 µM and the TGI (KM12 colon) was > 100 µM. For the same compound, the GI50 (SF-268 CNS) was > 57.1 µM, the TGI (SF-268 CNS) was > 100 µM and the GI50 (SW-620 colon) was > 100 µM. The TGI (SW-620 colon) was > 100 µM, the GI50 (COLO 205 colon) was > 86.6 µM and the TGI (COLO 205 colon) was > 100 µM. The GI50 (MALME-3M melanoma) was > 59.7 µM, the TGI (MALME-3M melanoma) was > 100 µM and the GI50 (UO-31 renal) was > 100 µM. For the same compound, the TGI (UO-31 renal) was > 100 µM, the GI50 (HL-60(TB) leukemia) was > 100 µM and the TGI (HL-60(TB) leukemia) was > 100 µM. The GI50 (HCC-2998 colon) was > 100 µM, the TGI (HCC-2998 colon) was > 100 µM and the GI50 (786-0 renal) was > 85.8 µM. The TGI (786-0 renal) was > 100 µM, the GI50 (MDA-MB-231 breast) was 28.7 µM and the TGI (MDA-MB-231 breast) was > 100 µM. The GI50 (U251 CNS) was > 81.1 µM, the TGI (U251 CNS) was > 100 µM and the GI50 (A498 renal) was 1.01 µM. For the same compound, the TGI (A498 renal) was 46.1 µM, the GI50 (SF-295 CNS) was 64.4 µM and the TGI (SF-295 CNS) was > 100 µM. For the same compound, the GI50 (SNB-75 CNS) was > 100 µM, the TGI (SNB-75 CNS) was > 100 µM and the GI50 (T-47D breast) was 31.3 µM. For the same compound, the TGI (T-47D breast) was > 75.8 µM, the GI50 (OVCAR-5 ovarian) was > 74.6 µM and the TGI (OVCAR-5 ovarian) was > 100 µM. The GI50 (RPMI-8226 leukemia) was 36.1 µM, the TGI (RPMI-8226 leukemia) was > 100 µM and the GI50 (ACHN renal) was > 100 µM. For the same compound, the TGI (ACHN renal) was > 100 µM, the GI50 (SF-539 CNS) was > 31.8 µM and the TGI (SF-539 CNS) was > 83.8 µM. The GI50 (CCRF-CEM leukemia) was 71.2 µM and the TGI (CCRF-CEM leukemia) was > 100 µM.
